From PMC11040934, “PI3Kγδ inhibition suppresses key disease features in a rat model of asthma” (Respiratory Research, 2024)
Where two headings read alike, the source gives them in different places.

Assay: Rat plasma protein binding, blood to plasma ratio, unbound fraction in whole blood
Assay type: in vitro ADME
Conditions: for fraction unbound: rat
Procedure: Next, cells were stained with Fc block (550,273, BD bioscience, 1:100; 20 mins, RT), CD45R-B220-PeCy7 (HIS24) (25–0460-82, eBioscience, 1:100), CD43-PE (W3/13) (202,812, Biolegend, 1:100), HIS48-FITC (11–0570-82, eBioscience, 1:100), CD11b-APC (562,102, BD Bioscience, 1:100). Cells were lysed and fixed with BD FACS lysing solution (349,202, BD Biosciences; 45 mins, RT) before FACS acquisition (BD LSRFortessa™). Data were analysed using FlowJo 9.9 software (TreeStar). FACS gating strategy: lymphocytes (FSC-A vs SSC-A), doublets exclusion (FSC-W vs FSC-H), neutrophil identification B220-, HIS48hi, CD43hi, SSC-Ahi, geom. MFI for CD11b on neutrophils. IC50 values were determined in Graph Pad through a nonlinear fit on log transform data: log inhibitor vs response, variable slope, 4 parameters. Fraction unbound in diluted whole blood is calculated using the following equation: fu^′=DF·fub/1+DF-1·fub where fu’ is the fraction unbound in diluted whole blood; fub is the fraction unbound in undiluted whole blood; DF is the dilution factor. Fraction unbound in 100% whole blood (fub) is calculated as fup/BP, where fup is the experimentally determined fraction unbound in undiluted plasma and BP is the experimentally determined blood to plasma partition ratio of drug Table 1.

Compound: Cc1nc(Nc2cccc(N3CCCC3=O)n2)sc1-c1cc2c(c(S(C)(=O)=O)c1)C(=O)N([C@@H](C)C1CC1)C2 [AZD8154]
- Rat B/P ratio (blood to plasma partition ratio): 0.82
- Rat fub (fraction unbound in 100% whole blood, fup/BP): 0.018
- fraction unbound (diluted whole blood (PI3K γ assay), fraction unbound in diluted whole blood, DF 1.05 (γ assay), read-out: fu’): 0.0192
- fraction unbound (plasma, rat plasma, fraction unbound, read-out: Rat ppb (fu, %)): 0.015
- fraction unbound (plasma, undiluted rat plasma, fraction, read-out: Rat plasma fu): 0.015
